Results published in US20240149298A1, “PREPARATION OF HYDROPHOBIC SURFACES” (Technion Research & Development Foundation Limited, priority 2021, published 2024).

Tests used:
[1] = test system: E. coli; test: Antimicrobial properties of fatty acid powders in liquid medium, drop-plate method; assay type: cell-based, Escherichia coli; conditions: 50 milligram SFA powder per 1 mL suspension, 24 hours at 37° C.; control 1.2 ± 0.2 · 10^8
Procedure: (§1) Antimicrobial studies: The antimicrobial properties of fatty acid powders were evaluated by in liquid medium via the drop-plate method. One bacteria colony (E. coli or L. innocua) was incubated overnight in 4 mL Nutrient Broth (NB) liquid medium (Sigma Aldrich, Israel) at 37° C. under agitation (150 rpm) until the bacteria reached a stationary phase (about 10^9 CFU/mL). Then, the overnight bacteria culture was diluted in fresh NB medium (about 10^7 CFU/mL) and incubated for an additional 2 hours to achieve a logarithmic culture. Next, the logarithmic culture was diluted to 10^4 CFU mL^−1 in 1:100 NB medium.
(§2) 1 mL of the diluted bacterial suspension was incubated with 50 milligram of different SFA powders at 37° C. for 24 hours in 24-well-plates under agitation (100 rpm). The cultures were decimally diluted and 10 μL drops were transferred onto NB solid agar substrate. The colonies were counted after 24 hours incubation at 37° C.
(§3) To study the intrinsic bactericidal effect of the tested SFAs against both Gram-positive and Gram-negative bacteria, incubation of bacteria culture with powdered SFAs followed by colony counting was performed. Table 3 hereinbelow presents E. coli and L. innocua count in colony-forming unit (CFU) per milliliter, estimated by the drop-plate method following incubation for 24 hours at 37° C. with the SFA powders in respective liquid media.

[2] = Wetting properties: water contact angle (CA) of fatty acid coatings; assay type: physicochemical; conditions: for Contact angle [°] (about 5% RSD): sprayed on stainless steel, room temperature; for Contact angle [°] (N = 3) / Contact angle [°]: spray coating; for Contact angle [°]: N = 5
Procedure: Wetting properties of the coatings were characterized by CA and CAH measurements, which were performed using an Attension Theta Lite tensiometer and high-purity water or ethylene glycol (99.5%, Merck, Germany) droplets of 7 μL volume. Spray coating was performed by spraying a selected organic solution of a selected fatty acid or a selected mixture of fatty acids on a desired surface using commercially available spraying gun. Gun adjustment is required to obtain the optimal coating properties. Exemplary adjustment parameters included distance from the treated surface, which was optimal at around 30 cm, and pulse duration, which was optimal at 1-5 seconds (e.g., 1-2 seconds). Other parameters are described hereinabove. […] Roughness (RMS) and wettability measurements were performed as described hereinabove.

[3] = Roughness (RMS) of spray-deposited fatty acid layer, dynamic confocal microscope; assay type: physicochemical; conditions: for Roughness [μm] (about 10% RSD): sprayed on stainless steel, room temperature; for Roughness [μm] (N = 3) / Roughness [μm]: spray coating; for Roughness [μm]: N = 5
Procedure: Roughness and coating thickness were measured using a dynamic confocal microscope (Leica DCM3D); data processing was performed using SensoMap Turbo software. The coating thickness was calculated as the difference in height between the lower and upper levels of a confocal profile measured after a scratch implementation on the coating using a 25G needle. Spray coating was performed by spraying a selected organic solution of a selected fatty acid or a selected mixture of fatty acids on a desired surface using commercially available spraying gun. Gun adjustment is required to obtain the optimal coating properties. Exemplary adjustment parameters included distance from the treated surface, which was optimal at around 30 cm, and pulse duration, which was optimal at 1-5 seconds (e.g., 1-2 seconds). Other parameters are described hereinabove. Exemplary solutions were sprayed onto a surface of stainless steel, at room temperature. Roughness (RMS) and wettability measurements were performed as described hereinabove.

[4] = test system: L. innocua; test: Antimicrobial properties of fatty acid powders in liquid medium, drop-plate method; assay type: cell-based, Listeria innocua; conditions: 24 hours at 37° C.; for L. innocua [CFU mL^−1]: 50 milligram SFA powder per 1 mL suspension, control 2.4 ± 0.2 · 10^5; for L. innocua growth inhibition: powdered SFA
Procedure: as §1, §2, §3

[5] = test system: Botrytis cinerea; test: Anti-fungal effect of neat fatty acids on PDA agar plates; assay type: cell-based; conditions: neat fatty acid at centre of PDA plate, 24° C., 72 hours
Procedure: Anti-fungal studies: Botrytis cinerea (B. cinerea) isolate B05.10 was collected from Vitis vinifera. Botrytis cinerea spores were plated on potato dextrose agar (PDA) plates, each fatty acid powder was placed in the center of the plate, and the plates were then incubated at 24° C. for 72 hours. In the case of caprylic acid, a hole was punched in the middle of the agar plate in order to contain its liquid form.

[6] = Contact angle hysteresis (CAH) of spray-coated fatty acid coatings; assay type: physicochemical; conditions: spray coating
Procedure: Wetting properties of the coatings were characterized by CA and CAH measurements, which were performed using an Attension Theta Lite tensiometer and high-purity water or ethylene glycol (99.5%, Merck, Germany) droplets of 7 μL volume.

[7] = test system: Botrytis cinerea; test: Ex-planta rose petals, damaged area after Botrytis cinerea spore droplets; conditions: thick, medium and thin sprayed layers; 10^4 spores per milliliter, 30 μL droplets, 72 hours, room temperature
Procedure: Botrytis cinerea culture was diluted in potato dextrose broth (PDB) medium to a final concentration of 10^4 spores per milliliter. 30 μL droplets were put on the coated leaves and uncoated control leaves and left in room temperature protected from light for 72 hours. A damaged area can be observed below and surrounding each droplet. The damaged area was then measured using a caliper along its long and the short directions.

[8] = Diethyl ether (Tb 36.4), 50 mg/ml
[9] = Diethyl ether (Tb 36.4), 50 mg/ml, listed as palmitic acid
[10] = Diethyl ether (Tb 36.4), 20 mg/ml

For `CCCCCCCCCCCCCCCCCCCC(=O)O` [Arachidic acid], the “E. coli [CFU mL^−1]” value [1] was 9.6 ± 3.2 · 10^7 CFU mL^−1, the “Contact angle [°] (about 5% RSD)” value ([2]; Acetone, 2 mg/ml) was 134 ° and the “Contact angle [°] (about 5% RSD)” value ([2]; Diethyl ether, 10 mg/ml) was 152 °. For the same molecule, the “Contact angle [°] (about 5% RSD)” value ([2]; EtOH, 1 mg/ml) was 119 °, the “Roughness [μm] (about 10% RSD)” value ([3]; Acetone, 2 mg/ml) was 2.7 μm and the “Roughness [μm] (about 10% RSD)” value ([3]; Diethyl ether, 10 mg/ml) was 4.3 μm. The “Roughness [μm] (about 10% RSD)” value ([3]; EtOH, 1 mg/ml) was 0.9 μm, the “L. innocua [CFU mL^−1]” value [4] was 0 CFU mL^−1 and the “L. innocua growth inhibition” value [4] was “completely inhibited”.
For `CCCCCCCCCCCCCCCCCCCCCC(=O)O` [Behenic acid], the “Contact angle [°] (about 5% RSD)” value ([2]; Diethyl ether, 2 mg/ml) was 156 °, the “anti-fungal effect against Botrytis cinerea growth” value (“anti-fungal effect” below) [5] was “do not present any anti-fungal effect” and the “Roughness [μm] (about 10% RSD)” value ([3]; Diethyl ether, 2 mg/ml) was 4.2 μm.
For `CCCCCCCCCCCC(=O)O` [Lauric acid], the “Contact angle [°] (about 5% RSD)” value ([2]; EtOH, 10 mg/ml) was 113 ° and the “Roughness [μm] (about 10% RSD)” value ([3]; EtOH, 10 mg/ml) was 5.2 μm.
In the case of `CCCCCCCCCCCCCC(=O)O` [Myristic acid], the “Contact angle [°] (about 5% RSD)” value ([2]; Acetone, 10 mg/ml) is reported as 120 °, the “Contact angle [°] (about 5% RSD)” value ([2]; Diethyl ether, 20 mg/ml) is reported as 132 ° and the “Contact angle [°] (about 5% RSD)” value ([2]; EtOH, 10 mg/ml) is reported as 115 °. For the same molecule, the “Roughness [μm] (about 10% RSD)” value ([3]; Acetone, 10 mg/ml) was 4.2 μm, the “Roughness [μm] (about 10% RSD)” value ([3]; Diethyl ether, 20 mg/ml) was 5.6 μm and the “Roughness [μm] (about 10% RSD)” value ([3]; EtOH, 10 mg/ml) was 4.7 μm.
With `CCCCCCCCCCCCCCCC(=O)O` [Palmitic acid] the “E. coli [CFU mL^−1]” value [1] was 1.4 ± 0.6 · 10^8 CFU mL^−1, the “CAH [°] (N = 3)” value [6, 8] was 11.1 ± 4.6 ° and the “CAH [°] (N = 3)” value [6, 9] was 11.1 °. The “protection of rose petals against damage by Botrytis cinerea” value [7] was “most effectively inhibit damage propagation”, the “Contact angle [°] (N = 3)” value [2, 8] was 156.6 ± 2.3 ° and the “Contact angle [°] (N = 3)” value [2, 9] was 156.6 °. For the same molecule, the CA angle ([2]; spray-coated) was “above 150 °”, the “Contact angle [°] (about 5% RSD)” value ([2]; Acetone, 15 mg/ml) was 140 ° and the “Contact angle [°] (about 5% RSD)” value ([2]; Diethyl ether, 10 mg/ml) was 145 °. For the same molecule, the “Contact angle [°] (about 5% RSD)” value ([2]; Diethyl ether, 20 mg/ml) was 148 °, the “Contact angle [°] (about 5% RSD)” value ([2]; EtOH, 10 mg/ml) was 111 ° and the “Contact angle [°] (about 5% RSD)” value ([2]; MeOH, 10 mg/ml) was 137 °. For the same molecule, the CA ([2]; thermally deposited on glass) was “below 140 °”, the “anti-fungal effect” value [5] was “do not present any anti-fungal effect” and the “Roughness [μm] (N = 3)” value [3, 8] was 4.4 ± 0.4 μm. The “Roughness [μm] (about 10% RSD)” value ([3]; Acetone, 15 mg/ml) was 5.0 μm, the “Roughness [μm] (about 10% RSD)” value ([3]; Diethyl ether, 10 mg/ml) was 3.2 μm and the “Roughness [μm] (about 10% RSD)” value ([3]; Diethyl ether, 20 mg/ml) was 4.8 μm. For the same molecule, the “Roughness [μm] (about 10% RSD)” value ([3]; EtOH, 10 mg/ml) was 2.3 μm, the “Roughness [μm] (about 10% RSD)” value ([3]; MeOH, 10 mg/ml) was 3.6 μm and the “L. innocua [CFU mL^−1]” value [4] was 1.7 ± 0.5 · 10^4 CFU mL^−1. For the same molecule, the “L. innocua growth inhibition” value [4] was “inhibited by an order of magnitude”.
With `CCCCCCCCCCCCCCCCCC(=O)O` [Stearic acid] the “E. coli [CFU mL^−1]” value [1] was 1.8 ± 0.05 · 10^8 CFU mL^−1, the “CAH [°] (N = 3)” value ([6]; Acetone (Tb 56.0), 10 mg/ml) was 2.3 ± 1.2 ° and the “CAH [°] (N = 3)” value ([6]; Acetone (Tb 56.0), 20 mg/ml) was 2.0 ± 1.7 °. The “CAH [°] (N = 3)” value [6, 10] was 2.2 ± 1.1 °, the “CAH [°] (N = 3)” value [6, 8] was 1.7 ± 1.4 ° and the “CAH [°] (N = 3)” value ([6]; EtOH (Tb 78.4), 10 mg/ml) was 27.5 ± 7.0 °. The “CAH [°] (N = 3)” value ([6]; EtOH (Tb 78.4), 20 mg/ml) was 11 ± 1.2 °, the “effect of adding a food coloring agent on water contact angle” value ([2]; 0.02 gram/ml in diethyl ether plus coloring agent, spray-coated on glass) was “no change in water contact angle” and the “Contact angle [°] (N = 3)” value ([2]; Acetone (Tb 56.0), 10 mg/ml) was 156.4 ± 1.5 °. For the same molecule, the “Contact angle [°]” value ([2]; Acetone (Tb 56.0), 20 mg/ml) was 156.5 ± 5.5 °, the “Contact angle [°]” value [2, 10] was 165.3 ± 1.1 ° and the “Contact angle [°] (N = 3)” value [2, 8] was 165.7 ± 4.4 °. For the same molecule, the “Contact angle [°] (N = 3)” value ([2]; EtOH (Tb 78.4), 10 mg/ml) was 113.2 ± 4.6 °, the “Contact angle [°]” value ([2]; EtOH (Tb 78.4), 20 mg/ml) was 118.3 ± 5.8 ° and the “Contact angle [°] (about 5% RSD)” value ([2]; Acetone, 5 mg/ml) was 145 °. The “Contact angle [°] (about 5% RSD)” value ([2]; Acetone, 20 mg/ml) was 156 °, the “Contact angle [°] (about 5% RSD)” value ([2]; Diethyl ether, 15 mg/ml) was 149 ° and the “Contact angle [°] (about 5% RSD)” value ([2]; Diethyl ether, 20 mg/ml) was 165 °. For the same molecule, the “Contact angle [°] (about 5% RSD)” value ([2]; EtOH, 5 mg/ml) was 110 °, the “Contact angle [°] (about 5% RSD)” value ([2]; EtOH, 20 mg/ml) was 118 ° and the “Contact angle [°] (about 5% RSD)” value ([2]; MeOH, 4 mg/ml) was 136 °. The “Roughness [μm] (N = 3)” value ([3]; Acetone (Tb 56.0), 10 mg/ml) was 11.9 ± 3.7 μm, the “Roughness [μm]” value ([3]; Acetone (Tb 56.0), 20 mg/ml) was 7.5 ± 0.9 μm and the “Roughness [μm]” value [3, 10] was 6.1 ± 1.0 μm. For the same molecule, the “Roughness [μm] (N = 3)” value [3, 8] was 8.0 ± 0.6 μm, the “Roughness [μm] (N = 3)” value ([3]; EtOH (Tb 78.4), 10 mg/ml) was 1.5 ± 0.06 μm and the “Roughness [μm]” value ([3]; EtOH (Tb 78.4), 20 mg/ml) was 1.1 ± 0.1 μm. The “Roughness [μm] (about 10% RSD)” value ([3]; Acetone, 5 mg/ml) was 1.3 μm, the “Roughness [μm] (about 10% RSD)” value ([3]; Acetone, 20 mg/ml) was 7.5 μm and the “Roughness [μm] (about 10% RSD)” value ([3]; Diethyl ether, 15 mg/ml) was 5.7 μm. The “Roughness [μm] (about 10% RSD)” value ([3]; Diethyl ether, 20 mg/ml) was 6.1 μm, the “Roughness [μm] (about 10% RSD)” value ([3]; EtOH, 5 mg/ml) was 0.7 μm and the “Roughness [μm] (about 10% RSD)” value ([3]; EtOH, 20 mg/ml) was 1.1 μm. For the same molecule, the “Roughness [μm] (about 10% RSD)” value ([3]; MeOH, 4 mg/ml) was 3.5 μm, the “L. innocua [CFU mL^−1]” value [4] was 1.9 ± 0.5 · 10^4 CFU mL^−1 and the “L. innocua growth inhibition” value [4] was “inhibited by an order of magnitude”.
In the case of `CCCCCCCC(=O)O` [caprylic acid, Caprylic acid], the “anti-fungal effect” value [5] is reported as “complete inhibition”.
For `C/C=C/C=C/C(=O)O` [sorbic acid], the “properties of sprayed coating as single component” value ([2]; preliminary tests, data not shown) was “hydrophilic coating which was not stable over time” and the “anti-fungal effect” value [5] was “significant growth inhibition”.
